Data as given in patent US12600716B2 (Gannex Pharma Co., Ltd., priority 2020, dated 2026).
Where two headings read alike, the source gives them in different places.

Legend:
[1] = Mouse pharmacokinetic studies (IV and PO); format: in vivo, Male CD-1 mice; conditions: for PO F: PO 10 mg/kg vs IV 2.0 mg/kg; for Vd / AUC(0-t) / clearance / half-life / Cmax / Tmax: male, CD-1, plasma; for clearance: read-out: IV Cl; for half-life: read-out: IV T½ (converted)
Method: Mouse Pharmacokinetic Studies
Typical PK study procedure. For i.v. PK studies, a group of three fasted Male CD-1 mice were dosed with the compound (2.0 mg/kg, 0.50 mg/mL in 5% solutol in saline, clear solution), and 0.02 mL blood was collected at 0.0830, 0.250, 0.500, 1.00, 2.00, 4.00, 8.00, 24.0 h. For PO PK studies, a group of three fasted Male CD-1 mice were dosed with the compound (10 mg/kg, 1 mg/mL in 5% solutol in saline, clear solution), and 0.02 mL blood was collected at 0.250, 0.500, 1.00, 2.00, 4.00, 6.00, 8.00, 24.0 h. The blood was collected into EP tubes (containing EDTA K20.85-1.15 mg) and centrifuged at 3,000 g or 3,200 g at 4° C. for 10 min) and plasma was isolated and divided into two vials. One was used for bioanalysis and one was kept as backup. The samples were kept at −60° C. or below, until being analyzed by LC MS/MS. The samples were analyzed with AB SCIEX INSTRUMENTS LC-MS/MS AU-Triple Quad 6500 Plus and data were processed with Phoenix WinNonlin 6.3 (IV-noncompartmental model and PO-noncompartmental model).

[2] = target: T1, human FXR protein (Homo sapiens, UniProt Q96RI1); experiment: FXR agonist binding ability: time-resolved fluorescence (LanthaScreen) FXR/coactivator assay; format: biochemical; conditions: GST-labeled human FXR, fluorescein-labeled coactivator, TR-FRET
T1 construct: purchased Invitrogen
Method: FXR Agonist Binding Ability Evaluation of the activation effect of the compound of the present invention with regard to the binding of FXR to its co-stimulatory factor SRC-1 was conducted by using time-resolved analytical techniques. Protein: glutathione-S-transferase (GST)-labeled human FXR protein (Invitrogen) • 2. Coactivator: Fluorescein-labeled steroid receptor coactivator (SRC2-2) (Invitrogen) • 3. Detection reagent: LanthaScreen Time-Resolved Fluorescence Analysis Kit (Invitrogen) • 1. The compound was prepared into a 10 mM DMSO stock solution and stored in a −20° C. refrigerator for a long time. • 2. The compound was diluted to 1 mM before the experiment, and then the compound was diluted 3-fold to 10 concentration points using DMSO. Then use buffer G (Invitrogen, PV4553) to dilute these 10 concentration points by 50 times to become a working fluid. Add 10 μl of each working solution to each well of a 384-well plate. • 3. Prepare a human FXR protein solution (final concentration 20 nM) in chilled buffer G and add 5 μl of human FXR protein solution to each well of a 384-well plate. • 4. Prepare a mix of buffer G containing 2 μM fluorescein-labeled steroid receptor coactivator and 20 nM GST antibody. • 5. Add 5 μl of the mixture prepared in Step 4 to a 384-well plate. • 6. Centrifuge the 384-well plate at 1000 g for 1 minute. • 7. Incubate for 1 hour at room temperature in the dark. • 8. Read the 384-well plate at 520 nm and 495 nm on an Envision 2104 plate reader. • 9. Calculate the EC50 value of the activation effect of the compound.

[3] = target: T2, hFXR-LBD-GAL4 (Homo sapiens, UniProt Q96RI1); experiment: FXR agonist transactivation ability: luciferase reporter gene in HEK293T; format: cell-based; conditions: read-out: Cell activity
T2 construct: GAL4 (fusion partner); host or cells: HEK293T
T2 sequence (Q96RI1 262-486 limits assumed): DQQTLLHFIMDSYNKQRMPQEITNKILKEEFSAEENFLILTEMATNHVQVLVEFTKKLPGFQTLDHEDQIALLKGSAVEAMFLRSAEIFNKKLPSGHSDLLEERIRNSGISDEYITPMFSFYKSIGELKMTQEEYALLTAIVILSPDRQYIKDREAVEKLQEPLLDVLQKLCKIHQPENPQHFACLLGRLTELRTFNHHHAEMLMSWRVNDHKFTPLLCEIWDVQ
Method: FXR Agonist Transactivation Ability
Evaluation of the ability of the compound of the present invention to promote FXR transactivation was conducted by using luciferase reporter gene expression technology.
• 1. Cell line: HEK293T (Invitrogen) • 2. Expression plasmid: pBIND-hFXR-LBD-GAL4 (Promega), pGL4.35-luciferase (Promega) • 3. Cell culture medium: 10% serum and penicillin/streptomycin double antibody in DMEM medium • 4. Detection reagent: Steady-Glo fluorescence detection system (Promega). • 5. Transfection reagent: TransIT-293 Transfection Reagent (MIRUS BIO)
• 1. The compound was prepared into a 10 mM DMSO stock solution and stored in a −20° C. refrigerator for a long time. • 2. Resuscitation HEK293T cells were seeded in 10 cm culture dishes at a concentration of 5.5×10^6 and incubated for 16 hours at 37° C. in a 5% CO2 incubator. • 3. Return the transfection reagent to room temperature before transfection. The Trans-IT solution was added dropwise to Opti-MEM, and mixed by inversion for 5 minutes; the expression plasmid was added, mixed by inversion, and incubated at room temperature for 20 minutes. • 4. Add the transfection mixture from Step 3 to the prepared 10 cm dish in Step 2 and incubate for 5-6 hours in a 5% CO2 incubator. • 5. Dilute the compound 3 folds to 10 concentration points using DMSO; add 25 nl of compound per well in a 384-well plate using an Echo 550 sonic pipette; add HEK293T cells to the 384-well plate at a concentration of 15,000 cells/well; 37° C. incubate for 16-20 hours in a 5% CO2 incubator. • 6. Add 25 μl of Steady-Glo Fluorescent Reagent to each well and read the fluorescence on an Envision 2104 plate reader. • 7. Calculate the EC50 value of the activation of the compound.

[4] = IV 2.0 mg/kg, read-out: IV AUC 0-t
[5] = PO 10 mg/kg, read-out: PO AUC 0-t

Row | Compound | PO F [1] [%] | Vd ([1]; IV 2.0 mg/kg) [L/kg] | AUC(0-t) [1, 4] [ng·h/mL] | clearance ([1]; IV 2.0 mg/kg) [mL/min/kg] | half-life ([1]; IV 2.0 mg/kg) [min] | Cmax ([1]; PO 10 mg/kg) [ng/mL] | Tmax ([1]; PO 10 mg/kg) [min] | AUC(0-t) [1, 5] [ng·h/mL] | EC50 [2] [nM] | EC50 [3] [nM]
1 | O=C(O)c1ccc(Oc2cccc3cc(OCc4c(-c5c(Cl)cccc5Cl)noc4C4CC4)ccc23)nc1 [Compound 22, 6-((6-((5-cyclopropyl-3-(2,6-dichlorophenyl)isoxazol-4-yl)methoxy)naphthalen-1-yl)oxy)nicotinic acid] | 32 | 1.84 | 448 | 73.8 | 50.2 | 894 | 30 | 718 | < 50 | < 200
2 | O=C(O)c1ccnc(Oc2cccc3cc(OCc4c(-c5c(Cl)cccc5Cl)noc4C4CC4)ccc23)c1 [Compound 24, 2-((6-((5-cyclopropyl-3-(2,6-dichlorophenyl)isoxazol-4-yl)methoxy)naphthalen-1-yl)oxy)isonicotinic acid] | 12 | 2.94 | 330 | 105 | 56.4 | 209 | 18 | 198 | < 50 | < 200
3 | O=C(O)c1ccc(F)cc1Oc1cccc2cc(OCc3c(-c4c(Cl)cccc4Cl)noc3C3CC3)ccc12 [Compound 26, 2-((6-((5-cyclopropyl-3-(2,6-dichlorophenyl)isoxazol-4-yl)methoxy)naphthalen-1-yl)oxy)-4-fluorobenzoic acid] | 17 | 0.745 | 969 | 35 | 37.2 | 900 | 30 | 830 | < 50 | < 200
4 | Cc1nc(Oc2cccc3cc(OCc4c(-c5c(Cl)cccc5Cl)noc4C4CC4)ccc23)ccc1C(=O)O [Compound 27, 6-((6-((5-cyclopropyl-3-(2,6-dichlorophenyl)isoxazol-4-yl)methoxy)naphthalen-1-yl)oxy)-2-methylnicotinic acid] | 33.2 | 0.897 | 1690 | 19.7 | 96.6 | 2080 | 30 | 2780 | < 50 | < 200
5 | Cc1cc(C(=O)O)cnc1Oc1cccc2cc(OCc3c(-c4c(Cl)cccc4Cl)noc3C3CC3)ccc12 [Compound 28, 6-((6-((5-cyclopropyl-3-(2,6-dichlorophenyl)isoxazol-4-yl)methoxy)naphthalen-1-yl)oxy)-5-methylnicotinic acid] | 29.9 | 0.663 | 1180 | 28.4 | 58.6 | 2130 | 30 | 1740 | < 50 | < 200
6 | O=C(O)c1ccc(Oc2ccc3ccc(OCc4c(-c5c(Cl)cccc5Cl)noc4C4CC4)cc3c2)nc1 [Compound 31, 6-((7-((5-cyclopropyl-3-(2,6-dichlorophenyl)isoxazol-4-yl)methoxy)naphthalen-2-yl)oxy)nicotinic acid] | 9.74 | 2.77 | 304 | 110 | 36.8 | 133 | 20 | 140 | < 50 | < 200
7 | O=C(O)c1ccc(Oc2ccc3c(F)c(OCc4c(-c5c(Cl)cccc5Cl)noc4C4CC4)ccc3c2)nc1 [Compound 32, 6-((6-((5-cyclopropyl-3-(2,6-dichlorophenyl)isoxazol-4-yl)methoxy)-5-fluoronaphthalen-2-yl)oxy)nicotinic acid] | 54.7 | 1.36 | 1400 | 24 | 61.8 | 1400 | 30 | 3810 | < 50 | < 200
8 | O=C(O)c1ccc(F)cc1Oc1c(F)ccc2cc(OCc3c(-c4c(Cl)cccc4Cl)noc3C3CC3)ccc12 [Compound 44, 2-((6-((5-cyclopropyl-3-(2,6-dichlorophenyl)isoxazol-4-yl)methoxy)-2-fluoronaphthalen-1-yl)oxy)-4-fluorobenzoic acid] | 23.7 | 2.06 | 559 | 60.4 | 73.8 | 384 | 56 | 646 | < 50 | < 200
9 | Cc1nc(Oc2c(F)ccc3cc(OCc4c(-c5c(Cl)cccc5Cl)noc4C4CC4)ccc23)ccc1C(=O)O [Compound 45, 6-((6-((5-cyclopropyl-3-(2,6-dichlorophenyl)isoxazol-4-yl)methoxy)-2-fluoronaphthalen-1-yl)oxy)-2-methylnicotinic acid] | 15.7 | 1.04 | 1500 | 22.1 | 84 | 627 | 60 | 1140 | < 50 | < 200
